# Experiments:
# Format in all cases: cell-based
# [1] = tested on: HCT116 colorectal cancer cells; experiment: Western blot of ERK/JNK activation (pERK, pJNK) in HCT116 cells; conditions: stably transfected HCT116, 20 μM SB328437 (FIG. 7B)
# Method: To explore the role of CCL7 signaling and CCR3 in the EMT-related pathway, activation of ERK and JNK was measured. HCT116 colorectal cancer cells were transiently transfected with siRNA against CCL7 or stably transfected with GFP (control) or CCL7. The stably transfected cells were incubated in the presence or absence of 20 μM SB328437. Cell lysates were obtained as above and assayed via Western blot analysis for pERK, total ERK, pJNK, total JNK, and β-actin.
# [2] = tested on: HCT116 colorectal cancer cells; experiment: Transwell migration and matrigel invasion assay of HCT116 cells; conditions: GFP and CCL7 transfected HCT116 treated with SB328437 (FIG. 6C)
# Method: To explore the role of CCL7 on migration and invasion of cancer cells, HCT116 colorectal cancer cells were transiently transfected with siRNA to the CCL7 gene or stably transfected with GFP (control) or CCL7. The cells (5×10^4) were loaded into the migration and invasion chambers in a 24-well plate in serum-free RPMI media. The lower chambers were supplemented with 10% FBS and the cells were incubated for 24 or 48 hours. The cells were stained with calcein or hematoxylin-eosin and mounted. Cell migration and invasion was quantified via fluorescence.
# [3] = tested on: HCT116 colorectal cancer cells; experiment: Western blot of EMT markers and CCR3 in HCT116 cells; conditions: HCT116 cells stably transfected with GFP or CCL7, with or without SB328437; Western blot (FIG. 5D)
# Method: For the Western blot, lysates from transfected HCT116 cells were obtained using Pro-prep buffer (Intron Biotechnology, Seoul, Korea), including protease inhibitors. 20-60 μg the protein extract was resolved by SDS-PAGE and transferred to polyvinylidene fluoride (PVDF) membranes and probed with antibodies against CCR1, CCR2, CCR3, CCR5, CCL7, and β-actin, as a loading control. Secondary antibodies conjugated to horseradish peroxidase were used to image the membrane.
# HCT116 colorectal cancer cells were transfected with siRNA to lower expression of the CCL7 gene, and protein expression of CCL7, E-cadherin, Snail, vimentin, twist, and β-actin, as a loading control, was determined by Western blot analysis.
# HCT116 colorectal cancer cells were also treated with anti-CCL7 antibodies and the CCR3 expression in cell extracts was determined via Western blot analysis.
# HCT116 colorectal cancer cells were stably transfected with GFP (control) or CCL7 and the expression of E-cadherin, α-SMA, vimentin, twist, and β-actin, as a loading control, was determined via Western blot analysis.
structure (smiles),measurement,setting,value
COC(=O)[C@H](Cc1ccc([N+](=O)[O-])cc1)NC(=O)c1cccc2ccccc12 [SB328437],phosphorylation of ERK and JNK increased by CCL7 overexpression,[1],inhibited
same,CCL7-induced migration and invasion of the colorectal cancer cells,[2],blocked
same,"effect of CCL7 overexpression (reduced E-cadherin, increased α-SMA, vimentin, twist)",[3],blocked

# From patent US10316319B2, “Composition for diagnosis of liver metastasis of colorectal cancer and the use thereof” (SAMSUNG LIFE PUBLIC WELFARE FOUNDATION, priority 2010, dated 2019)
